Entries after “also recorded” stand apart in the source; their conditions may differ. Read-outs that look alike come from different tables or passages of the source.
Tests used:
[1] = system: HT1080 cells (fibrosarcoma cells that do not endogenously express SSTR2); experiment: MTT cell growth assay of HT1080 cells transfected with HA-SSTR2 wild-type or C-terminal deletions; format: cell-based; settings: 5% FBS, with or without 100 nM sandostatin, three days
Experimental: Three days later, MTT assay was used to determine cell number.
In the following experiments, HA-tagged receptors were used.
(§1) Two days after transient transfection with HA-SSTR2D351 or HA-SSTR2D340, 3000 HT1080 cells were grown in the presence of 5% FBS with or without 100 nM of the somatostatin analogue sandostatin. Three days later, MTT assay was used to determine cell number.

[2] = system: HT1080 tumors expressing HA-SSTR2 wild-type, HA-D314 or vector
Experimental: (§2) Stably transfected HT1080 cells were implanted subcutaneously in nude mice (three tumors, HA-wt, HA-D314, vector, per animal). When tumors were palpable, daily injections of the somatostatin analogue sandostatin were initiated and tumors were measured by calipers every two days.
(§3) Stably transfected HT1080 cells were implanted subcutaneously in nude mice (three tumors, HA-wt, HA-D314, vector, per animal).
(§4) Stably transfected HT1080 cells were implanted subcutaneously in nude mice (three tumors, HA-wt, HA-D314, vector, per animal). When tumors were palpable, 90Y-octreotate was given once at a dose of 1 mCi (FIG. 7A) or twice at doses of 2 mCi and 1 mCi (FIG. 7B).
as §2, §3, §4

[3] = system: Mouse ES cell-derived tumors expressing HA-SSTR2 or HA-SSTR2delta314; experiment: Growth of embryonic stem cell-derived teratomas measured by calipers; format: in vivo, nude mice; settings: tumors derived from wild type ES cells, i.v. twice
Experimental: Mouse ES cells (these are pluripotent stem cells that can be used to create transgenic mice and like most ES cells result in teratomas when injected in nude mice) were transfected with a plasmid containing HA-SSTR2 or HA-SSTR2delta314. Clones were then selected for expression. The cells were then injected into nude mice subcutaneously and tumor size was measured by calipers. After tumors were present in three locations per mouse in all 8 mice, the animals were injected i.v. with 90-Y labeled octreotate two days and 5 days later.
After tumors were present in three locations per mouse in all 8 mice, the animals were injected i.v. with 90-Y labeled octreotate two days and 5 days later as on the chart. Tumor size was measured by calipers. Unlike many stem cells, embryonic stem cells (ES) more commonly form teratomas. Inhibition of growth of established teratomas was assessed.

[4] = system: HT1080 cells expressing wild-type or signaling deficient HA-SSTR2 receptors, or vector transfected; experiment: Cell death by trypan blue uptake in stably transfected HT1080 cells; format: cell-based
Experimental: Stably transfected HT1080 cells were exposed to different amounts of ^90Y-DOTATATE for 1 hour and 72 hours.

[5] = system: Human ovarian cancer (Hey A8) tumors incorporating HS5 cells; experiment: Growth of Hey A8 tumors co-injected with HS5 cells expressing or not expressing HA-SSTR2D314; format: in vivo, nude mice; settings: intravenous
Description: FIG. 8: Stem cells expressing the signaling deficient mutant SSTR2D314 incorporate into tumor and can be targeted with a therapeutic for Inhibiting tumor growth.
Stem cells expressing the signaling deficient mutant SSTR2D314 incorporated into tumor and can be targeted with a therapeutic for inhibiting tumor growth (FIG. 8). […] Human ovarian cancer (Hey A8) cells were co-injected subcutaneously in nude mice with HS5 cells expressing or not expressing HA-SSTR2D314. […] Once tumors were established, 90Y-octreotate was delivered intravenously. Tumors were measured by calipers every two days. Tumors incorporating HS5 cells expressing the HA-SSTR2D314 mutant were growth inhibited compared to control (*p<0.05, HeyA8+HS5-SSTR2D314 vs HeyA8+HS5vector). The incorporated stem cells, but not the tumor cells, serve as a target for the therapeutic.

[6] = system: untransfected HT1080 cells admixed with HS5 cells; experiment: Bystander cell death, live/dead staining of HS5 mesenchymal stem cells admixed with untransfected HT1080 cells; format: cell-based, human; settings: HS5 stably expressing wild-type or signaling deficient HA-SSTR2 admixed with untransfected HT1080, 24 hours
Experimental: FIG. 4: Exposure to 90Y-DOTA-octreotate (DOTATATE) results in bystander cell death of tumor cells. Human mesenchymal stem cells (HS5) stably expressing wild-type or signaling deficient HA-SSTR2 receptors or transfected with vector were admixed with untransfected HT1080 cells and then exposed to 90Y-DOTATATE for 24 hours. Then, live (green)/dead (red) staining was performed.
Mixing mesenchymal stem cells expressing SSTR2 or the signaling deficient mutant delta 314 with untransfected tumor cells results in kill of rosettes of clusters of cells that are not seen if mesenchymal stem cells transfected with vector are used (FIG. 4), consistent with bystander killing. Human mesenchymal stem cells (HS5) stably expressing wild-type or signaling deficient HA-SSTR2 receptors or transfected with vector were admixed with untransfected HT1080 cells and then exposed to 90Y-DOTATATE for 24 hours.

[7] = system: Human ovarian cancer (Hey A8) tumors to which HS5 cells homed; experiment: Growth of Hey A8 tumors after systemic (intracardiac) injection of HS5 cells expressing or not expressing HA-SSTR2D314; format: in vivo, nude mice; settings: HeyA8 tumors, intravenous
Experimental: FIG. 9: Stem cells expressing the signaling deficient mutant SSTR2D314 home to and incorporate into tumor and can be targeted with a therapeutic for inhibiting tumor growth.
Stem cells expressing the signaling deficient mutant SSTR2D314 home to and incorporate into tumor and can be targeted with a therapeutic for inhibiting tumor growth (FIG. 9). […] Human ovarian cancer (Hey A8) cells on one side and vehicle on the other side were injected subcutaneously in nude. Two days later, human mesenchymal stem cells (HS5 cells) expressing or not expressing HA-SSTR2D314 were injected systemically (intracardiac). […] Tumors were seen on the side injected with HeyA8 cells. Once tumors were established, 90Y-octreotate was delivered intravenously. Tumors were measured by calipers every two days. Tumors to which HS5 cells expressing the HA-SSTR2D314 mutant homed and incorporated were growth inhibited compared to control (*p<0.05, HeyA8+HS5-SSTR2D314 vs HeyA8+HS5vector). The incorporated stem cells not the tumor cells serve as a target for the therapeutic.

HeyA8 tumors = experiment: Growth of HeyA8 tumors injected with adenovirus expressing HA-SSTR2delta340; format: in vivo; settings: HeyA8 tumors in nude mice, intratumoral adenovirus
Experimental: FIG. 12. Constitutively active SSTR2delta340 inhibits the growth of tumor cells. Nude mice were Injected subcutaneously with HeyA8 tumors cells and then each tumor was injected with adenovirus expressing HA-SSTR2delta340 or control inserts (8 tumors per group). Tumor size was measured by calipers. *p<0.05, tumors injected with adv-HA-SSTR2delta340 and given saline vs tumors injected with adv-GFP and given saline; for clarity only the comparison of these two groups is illustrated with *.
as §1

[8] = stably transfected HT1080 cells

Substance: wild-type SSTR2: HA-tagged wild-type (full length) human somatostatin receptor type 2
- cell growth (cell number by MTT assay) [1, 8]: require ligand stimulation to inhibit growth

Substance: HA-SSTR2D314: signaling deficient human SSTR2 truncated carboxy terminal to amino acid 314 (amino acids 1-314 of SEQ ID NO:6), HA-tagged
- cell growth (cell number by MTT assay) [1, 8]: does not inhibit cellular growth upon ligand stimulation

Substance: octreotide
- tumor growth (calipers) ([2]; tumors expressing signaling deficient receptor (HA-D314), daily injections): no decrease in tumor size was seen
- tumor growth (calipers) ([2]; tumors expressing wild-type receptor, daily injections): inhibited growth of tumors expressing wild-type receptor
- tumor growth (calipers) ([2]; tumors from vector transfected cells, daily injections): not the signaling deficient receptor or tumors derived from vector transfected cells

Substance: [^90Y-DOTA]-octreotate [90Y-DOTATATE]
- teratoma growth (calipers) [3]: not tumors derived from wild type ES cells
- cell death (trypan blue uptake) ([4]; HT1080 cells expressing signaling deficient HA-SSTR2, exposure 1 hour and 72 hours): Dose dependent and time dependent killing was observed
- cell death (trypan blue uptake) ([4]; HT1080 cells expressing wild-type HA-SSTR2, exposure 1 hour and 72 hours): Dose dependent and time dependent killing was observed
- tumor growth (calipers) ([5]; HeyA8+HS5-SSTR2D314 co-injected subcutaneously): inhibited growth of human tumors incorporating HS5 human mesenchymal stem cells expressing SSTR2D314
- tumor growth (calipers) ([5]; HeyA8+control HS5 (vector) co-injected subcutaneously): not control HS5 cells
- bystander cell death (live/dead staining) [6]: Rosettes (clusters) of dead cells were seen
- tumor growth (calipers) ([7]; HS5 expressing HA-SSTR2D314 injected intracardiac): inhibited growth of human tumors to which human mesenchymal stem cells expressing HA-SSTR2D314 homed and incorporated
- tumor growth (calipers) ([7]; control HS5 injected intracardiac): not control HS5 cells
- tumor growth (calipers) ([2]; tumors expressing signaling deficient receptor (HA-D314), once 1 mCi or twice 2 mCi and 1 mCi, listed as 90Y-octreotate): inhibited growth of tumors expressing wild-type or signaling deficient receptors; also recorded: decreased in size in a dose dependent manner
- tumor growth (calipers) ([2]; tumors expressing wild-type receptor, once 1 mCi or twice 2 mCi and 1 mCi): inhibited growth of tumors expressing wild-type or signaling deficient receptors
- tumor growth (calipers) ([2]; tumors from vector transfected cells, once 1 mCi or twice 2 mCi and 1 mCi): not tumors derived from vector transfected cells

Substance: HA-SSTR2D340: constitutively active human SSTR2 mutant, C-terminal amino acids after position 340 deleted (amino acids 1-340 of SEQ ID NO:6), HA-tagged
- tumor growth (size by calipers) (HeyA8 tumors): inhibits the growth of tumor cells in vivo
- cell growth (cell number by MTT assay) [1, 8]: inhibits growth even without ligand stimulation
- cell growth (cell number by MTT assay) ([1]; transiently transfected HT1080 cells): inhibit growth even without ligand stimulation
